Laboratory results published in US20090036448A1, “PYRIMIDINE DERIVATIVES AND METHODS OF TREATMENT RELATED TO THE USE THEREOF” (TAISHO PHARMECUTICAL CO., LTD., priority 2004, published 2009).

The compounds below were run against MCH receptor (Homo sapiens, UniProt Q99705) (assay: Receptor binding assay with Radiolabelled MCH Ligand). Conditions: class by percent of control at 10^-7 M or IC50.
Set-up: expressed in transfected cells; host or cells: 293 cells (human kidney, ATCC), transient transfection; crude membranes
Method in brief: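 This was a filtration radioligand displacement assay: compounds, first tested at 1 and 0.1 μM and then over a range, inhibited binding of a labelled MCH ligand to transfected 293-cell membranes at room temperature for 60–120 min. Specific binding excluded a cold-MCH nonspecific signal. Ki was derived from IC50 via Cheng-Prusoff, using an independently measured KD.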

Sequence of MCH receptor (Q99705 whole entry): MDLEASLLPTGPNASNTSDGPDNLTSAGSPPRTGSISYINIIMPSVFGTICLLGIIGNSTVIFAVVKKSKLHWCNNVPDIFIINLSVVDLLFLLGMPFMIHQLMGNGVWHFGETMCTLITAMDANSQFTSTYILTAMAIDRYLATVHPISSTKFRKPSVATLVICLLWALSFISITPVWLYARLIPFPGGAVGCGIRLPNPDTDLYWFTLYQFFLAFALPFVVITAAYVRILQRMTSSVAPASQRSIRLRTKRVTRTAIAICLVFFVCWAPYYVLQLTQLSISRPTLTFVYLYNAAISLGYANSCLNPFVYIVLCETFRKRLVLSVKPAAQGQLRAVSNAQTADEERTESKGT

Question: Which class does the source give for Cc1nc(N[C@H]2CC[C@@H](NCc3ccc(F)c(Cl)c3)CC2)cc(N(C)C)n1 [compound 401] here?
Answer: The class was 3 (Class 3: The value of percent of control at 10^−7 M was more than 60% or the value of IC50 was more than 200 nM.).

Question: With Cc1nc(N[C@H]2CC[C@@H](NCCC3CCCC3)CC2)cc(N(C)C)n1 [compound 402] as the compound, how does the class read?
Answer: Its class is 3 (Class 3: The value of percent of control at 10^−7 M was more than 60% or the value of IC50 was more than 200 nM.).

Question: Cc1nc(N[C@H]2CC[C@@H](NCCCc3ccccc3)CC2)cc(N(C)C)n1 [compound 403] was tested. Which class did it give?
Answer: Its class is 3 (Class 3: The value of percent of control at 10^−7 M was more than 60% or the value of IC50 was more than 200 nM.).

Question: Cc1nc(N[C@H]2CC[C@@H](NC[C@H](Cc3ccccc3)NS(=O)(=O)c3cccc4ccccc34)CC2)cc(N(C)C)n1 [compound 404] was tested. Which class did it give?
Answer: Its class is 3 (Class 3: The value of percent of control at 10^−7 M was more than 60% or the value of IC50 was more than 200 nM.).

Question: How did the class turn out when Cc1nc(N[C@H]2CC[C@@H](NCc3ccc(SC(F)(F)F)cc3)CC2)cc(N(C)C)n1 [compound 405] was run?
Answer: Its class is 3 (Class 3: The value of percent of control at 10^−7 M was more than 60% or the value of IC50 was more than 200 nM.).

Question: How did the class turn out when Cc1nc(N[C@H]2CC[C@@H](NCCc3ccccc3Br)CC2)cc(N(C)C)n1 [compound 406] was run?
Answer: Its class is 3 (Class 3: The value of percent of control at 10^−7 M was more than 60% or the value of IC50 was more than 200 nM.).

Question: How did the class turn out when Cc1nc(N[C@H]2CC[C@@H](NCc3cc(C(C)(C)C)nn3Cc3ccccc3)CC2)cc(N(C)C)n1 [compound 407] was run?
Answer: The class was 3 (Class 3: The value of percent of control at 10^−7 M was more than 60% or the value of IC50 was more than 200 nM.).

Question: How did the class turn out when Cc1nc(N[C@H]2CC[C@@H](NCC(C)(C)Oc3ccc(Cl)cc3)CC2)cc(N(C)C)n1 [compound 408] was run?
Answer: The class was 3 (Class 3: The value of percent of control at 10^−7 M was more than 60% or the value of IC50 was more than 200 nM.).

Question: Cc1nc(N[C@H]2CC[C@@H](NCc3cc(C(C)(C)C)nn3Cc3ccc(Cl)cc3Cl)CC2)cc(N(C)C)n1 [compound 409] was tested. Which class did it give?
Answer: Its class is 3 (Class 3: The value of percent of control at 10^−7 M was more than 60% or the value of IC50 was more than 200 nM.).

Question: Which class does the source give for Cc1nc(N[C@H]2CC[C@@H](NCc3cnn(C)c3Cl)CC2)cc(N(C)C)n1 [compound 410] here?
Answer: Its class is 3 (Class 3: The value of percent of control at 10^−7 M was more than 60% or the value of IC50 was more than 200 nM.).

Question: For Cc1nc(N[C@H]2CC[C@@H](NC(=O)NCc3ccccc3Cl)CC2)cc(N(C)C)n1 [compound 412], which class is on record?
Answer: The class was 3 (Class 3: The value of percent of control at 10^−7 M was more than 60% or the value of IC50 was more than 200 nM.).

Question: With Cc1nc(N[C@H]2CC[C@@H](NC(=O)NCc3ccc(F)cc3)CC2)cc(N(C)C)n1 [compound 413] as the compound, how does the class read?
Answer: Its class is 3 (Class 3: The value of percent of control at 10^−7 M was more than 60% or the value of IC50 was more than 200 nM.).

Question: For Cc1nc(N[C@H]2CC[C@@H](NC(=O)NC(c3ccccc3)c3ccccc3)CC2)cc(N(C)C)n1 [compound 414], which class is on record?
Answer: Its class is 3 (Class 3: The value of percent of control at 10^−7 M was more than 60% or the value of IC50 was more than 200 nM.).

Question: Cc1nc(N[C@H]2CC[C@@H](NC(=O)Nc3c(C)cc(Br)cc3C)CC2)cc(N(C)C)n1 [compound 416, N-(4-bromo-2,6-dimethylphenyl)-N′-(cis-4-{[6-(dimethylamino)-2-methylpyrimidin-4-yl]amino}cyclohexyl)urea] was tested. Which class did it give?
Answer: The class was 1 (Class 1: The value of percent of control at 10^−7 M was less than 40% or the value of IC50 was less than 50 nM.).

Question: For Cc1cc(C)c(NC(=O)N[C@H]2CC[C@@H](Nc3cc(N(C)C)nc(C)n3)CC2)c(C)c1 [compound 417], which class is on record?
Answer: Its class is 3 (Class 3: The value of percent of control at 10^−7 M was more than 60% or the value of IC50 was more than 200 nM.).

Question: For Cc1nc(N[C@H]2CC[C@@H](NC(=O)Nc3ccc(Cl)cc3C)CC2)cc(N(C)C)n1 [compound 418, N-(4-chloro-2-methylphenyl)-N′-(cis-4-{[6-(dimethylaminio)-2-methylpyrimidin-4-yl]amino}cyclohexyl)urea], which class is on record?
Answer: Its class is 3 (Class 3: The value of percent of control at 10^−7 M was more than 60% or the value of IC50 was more than 200 nM.).

Question: Which class does the source give for CCc1cccc(C(C)C)c1NC(=O)N[C@H]1CC[C@@H](Nc2cc(N(C)C)nc(C)n2)CC1 [compound 419] here?
Answer: The class was 3 (Class 3: The value of percent of control at 10^−7 M was more than 60% or the value of IC50 was more than 200 nM.).

Question: For Cc1nc(N[C@H]2CC[C@@H](NC(=O)Nc3ccc(Br)cc3C)CC2)cc(N(C)C)n1 [compound 420], which class is on record?
Answer: Its class is 3 (Class 3: The value of percent of control at 10^−7 M was more than 60% or the value of IC50 was more than 200 nM.).

Question: With CCc1cccc(C)c1NC(=O)N[C@H]1CC[C@@H](Nc2cc(N(C)C)nc(C)n2)CC1 [compound 421] as the compound, how does the class read?
Answer: Its class is 3 (Class 3: The value of percent of control at 10^−7 M was more than 60% or the value of IC50 was more than 200 nM.).

Question: Which class does the source give for Cc1nc(N[C@H]2CC[C@@H](NC(=O)Nc3c(C)cccc3C(C)(C)C)CC2)cc(N(C)C)n1 [compound 422] here?
Answer: Its class is 2 (Class 2: The value of percent of control at 10^−7 M was from 40% to 60% or the value of IC50 was from 50 nM to 200 nM.).

Question: Cc1nc(N[C@H]2CC[C@@H](NC(=O)Nc3c(Br)cc(C(C)C)cc3Br)CC2)cc(N(C)C)n1 [compound 423] was tested. Which class did it give?
Answer: Its class is 3 (Class 3: The value of percent of control at 10^−7 M was more than 60% or the value of IC50 was more than 200 nM.).

Question: Cc1nc(N[C@H]2CC[C@@H](NC(=O)Nc3ccccc3OC(F)(F)F)CC2)cc(N(C)C)n1 [compound 424] was tested. Which class did it give?
Answer: Its class is 3 (Class 3: The value of percent of control at 10^−7 M was more than 60% or the value of IC50 was more than 200 nM.).

Question: For COc1cc(NC(=O)N[C@H]2CC[C@@H](Nc3cc(N(C)C)nc(C)n3)CC2)cc(OC)c1OC [compound 425, N-(cis-4-{[6-(dimethylamino)-2-methylpyrimidin-4-yl]amino}cyclohexyl)-N′-(3,4,5-trimethoxyphenyl)urea], which class is on record?
Answer: The class was 1 (Class 1: The value of percent of control at 10^−7 M was less than 40% or the value of IC50 was less than 50 nM.).

Question: Which class does the source give for COc1cc(OC)c(NC(=O)N[C@H]2CC[C@@H](Nc3cc(N(C)C)nc(C)n3)CC2)cc1Cl [compound 426, N-(5-chloro-2,4-dimethoxyphenyl)-N′-(cis-4-{[6-(dimethylamino)-2-methylpyrimidin-4-yl]amino}cyclohexyl)urea] here?
Answer: The class was 2 (Class 2: The value of percent of control at 10^−7 M was from 40% to 60% or the value of IC50 was from 50 nM to 200 nM.).

Question: For COc1ccc(NC(=O)N[C@H]2CC[C@@H](Nc3cc(N(C)C)nc(C)n3)CC2)cc1OC1CCCC1 [compound 427], which class is on record?
Answer: The class was 3 (Class 3: The value of percent of control at 10^−7 M was more than 60% or the value of IC50 was more than 200 nM.).

Question: How did the class turn out when CCOc1ccccc1NC(=O)N[C@H]1CC[C@@H](Nc2cc(N(C)C)nc(C)n2)CC1 [compound 428] was run?
Answer: The class was 3 (Class 3: The value of percent of control at 10^−7 M was more than 60% or the value of IC50 was more than 200 nM.).

Question: Which class does the source give for Cc1nc(N[C@H]2CC[C@@H](NC(=O)Nc3c(Br)cc(Br)cc3Br)CC2)cc(N(C)C)n1 [compound 429, N-(cis-4-{[6-(dimethylamino)-2-methylpyrimidin-4-yl]amino}cyclohexyl)-N′-(2,4,6-tribromophenyl)urea] here?
Answer: Its class is 1 (Class 1: The value of percent of control at 10^−7 M was less than 40% or the value of IC50 was less than 50 nM.).

Question: Cc1nc(N[C@H]2CC[C@@H](NC(=O)Nc3c(Cl)cc(Cl)cc3Cl)CC2)cc(N(C)C)n1 [compound 430] was tested. Which class did it give?
Answer: The class was 3 (Class 3: The value of percent of control at 10^−7 M was more than 60% or the value of IC50 was more than 200 nM.).

Question: Cc1nc(N[C@H]2CC[C@@H](NC(=O)Nc3c(F)cc(Br)cc3Br)CC2)cc(N(C)C)n1 [compound 431] was tested. Which class did it give?
Answer: The class was 3 (Class 3: The value of percent of control at 10^−7 M was more than 60% or the value of IC50 was more than 200 nM.).

Question: How did the class turn out when Cc1nc(N[C@H]2CC[C@@H](NC(=O)Nc3cccc4ccccc34)CC2)cc(N(C)C)n1 [compound 432] was run?
Answer: Its class is 3 (Class 3: The value of percent of control at 10^−7 M was more than 60% or the value of IC50 was more than 200 nM.).

Question: How did the class turn out when Cc1nc(N[C@H]2CC[C@@H](NC(=O)Nc3c(C)noc3-c3ccccc3)CC2)cc(N(C)C)n1 [compound 433] was run?
Answer: Its class is 3 (Class 3: The value of percent of control at 10^−7 M was more than 60% or the value of IC50 was more than 200 nM.).

Question: With Cc1nc(N[C@H]2CC[C@@H](NC(=S)NCC(c3ccccc3)c3ccccc3)CC2)cc(N(C)C)n1 [compound 434] as the compound, how does the class read?
Answer: Its class is 3 (Class 3: The value of percent of control at 10^−7 M was more than 60% or the value of IC50 was more than 200 nM.).

Question: For Cc1cc(C)c(NC(=S)N[C@H]2CC[C@@H](Nc3cc(N(C)C)nc(C)n3)CC2)c(C)c1 [compound 437, N-(cis-4-{[6-(dimethylamino)-2-methylpyrimidin-4-yl]amino}cyclohexyl)-N′-mesitylthiourea], which class is on record?
Answer: Its class is 2 (Class 2: The value of percent of control at 10^−7 M was from 40% to 60% or the value of IC50 was from 50 nM to 200 nM.).

Question: Which class does the source give for CCc1cccc(CC)c1NC(=S)N[C@H]1CC[C@@H](Nc2cc(N(C)C)nc(C)n2)CC1 [compound 438, N-(2,6-diethylphenyl)-N′-(cis-4-{[6-(dimethylamino)-2-methylpyrimidin-4-yl]amino}cyclohexyl)thiourea] here?
Answer: The class was 2 (Class 2: The value of percent of control at 10^−7 M was from 40% to 60% or the value of IC50 was from 50 nM to 200 nM.).

Question: Which class does the source give for Cc1nc(N[C@H]2CC[C@@H](NC(=S)Nc3ccc(N(C)C)c4ccccc34)CC2)cc(N(C)C)n1 [compound 440] here?
Answer: The class was 3 (Class 3: The value of percent of control at 10^−7 M was more than 60% or the value of IC50 was more than 200 nM.).

Question: How did the class turn out when COc1cc(NC(=S)N[C@H]2CC[C@@H](Nc3cc(N(C)C)nc(C)n3)CC2)cc(OC)c1OC [compound 442, N-(cis-4-{[6-(dimethylamino)-2-methylpyrimidin-4-yl]amino}cyclohexyl)-N′-(3,4,5-trimethoxyphenyl)thiourea] was run?
Answer: The class was 1 (Class 1: The value of percent of control at 10^−7 M was less than 40% or the value of IC50 was less than 50 nM.).
